The nature of series [1]: Drug toxicity: body weights and complete blood counts in tumor-bearing mice. It is filed as in vivo. The protocol: For the s.c. SW48 model, 2 × 10^6 cells were injected into the flanks of randomly assigned, gender-matched 8–10-week-old NSG mice. 20 mg/kg MC180379, MC180380, or MC180295 was injected (i.p.), every other day, when the tumors were palpable, 11 days after engraftment, until endpoints were met. Mice were sacrificed before tumor volumes exceeded 400 mm^2 (endpoint for this model). For the s.c. HT29 model, 2 × 10^6 cells were injected into the flanks of randomly assigned, gender-matched, 8–10-week-old NSG mice. 20 mg/kg MC180379 or MC180380 was injected (i.p.), every other day, when the tumors were palpable, 12 days after engraftment, until endpoints were met. Mice were sacrificed before tumors volumes exceeded 400 mm^2 (used as the endpoint for this model). For the CT26.CL25 model, 5 × 10^5 cells were injected into the flanks of randomly assigned female 8–10-week-old B6 mice. 20 mg/kg MC180295 was injected (i.p.), every other day, when the tumors were palpable, 8 days after engraftment, until endpoints were met. 0.5 mg/kg DAC was injected (i.p.) daily until an endpoint was met. Mice were sacrificed when they developed serious tumoral ulcerations. CD8 + T cells were depleted using an anti-CD8 antibody (InVivoMAb anti-mouse CD8 (Lyt 2.1), BE0118) on days 4, 5, and 11 after inoculation. MC180295, MC180379, and MC180380 were dissolved in NMP (Fisher Scientific), Captisol® (20% w/v) (CyDex), PEG-400 (Millipore Sigma), and normal saline (PBS) (Corning), at a ratio of 1:4:4:11. NMP was added first, followed by Captisol and PEG-400. PBS was added last. DAC was dissolved in water. In a subset of the experiments, after mice were sacrificed, peripheral blood was collected, and complete blood counts were obtained using Abaxis VetScan HM5.

Series [2] in a line: Rat hepatocyte stability assay. Particulars: cryopreserved primary hepatocytes; Rat (Sprague-Dawley) hepatocytes, male. It is filed as in vitro ADME. Also noted: dose or concentration left out as unconfirmed. The protocol:
CLint (μL/min/10^6 cells) estimates were determined using a modified method of […] et al.. Cryopreserved rat (Sprague-Dawley) primary hepatocytes (4 male donors) (Life Tech product RTCS10) were rapidly thawed, diluted with Hank's balanced salt solution at 37 °C and centrifuged for 5 min at 100 × g. Resuspended cells were stained with 0.016% trypan blue and counted. Cell viability was > 80%. 0.25 mL of a 1 × 10^6 viable cells/ml cell suspension was added to 16-mm diameter wells of an uncoated polystyrene plate. The prewarmed plate was placed in a 37 °C incubator with 5% CO2 atmosphere, with 100 oscillations/min shaking. After 5 min, 0.25 mL of 2 μM test compound, in prewarmed HBSS, was added per well and mixed to start the reactions, with duplicate reactions per compound. Verapamil was used as a positive control, and cell-free reactions served as negative controls. At each time point (0, 5, 15, 30, 60, 90, and 120 min), 50 μL aliquots were transferred to a 96-well stop plate containing 200 μL/well acetonitrile: water (85:15), with 0.1% formic acid and 0.1 μM propafenone. The plate was centrifuged for 10 min at 2300 × g. 150 μL of the supernatant was transferred to a mass spectrometry sample plate. Samples were analyzed by UPLC/MS, as described in the microsome stability protocol. Results are expressed as t1/2 (min) and in vitro CLint (μL/min/10^6 cells).

The nature of series [3]: Liver microsome stability assay. It is filed as in vitro ADME, human. To be noted: both sexes, pooled liver microsomes, pH 7.4; for half-life at 1 µM: Human (mixed gender) liver microsomes; for remaining at 1 h, 1 µM: Human liver microsomes, without NADPH, 60 min, read-out: Stability minus NADPH % Remaining @ 60 min. Here is the method:
Assays were conducted in 96-deep well polypropylene plates. In duplicate, test compounds (1 µM) were incubated in 0.5 mL of 100 mM potassium phosphate buffer (pH 7.4), with 0.5 mg/ml pooled liver microsomes (Life Technologies: CD-1 male mice # MSMCPL; SD male rat # RTMCPL; mixed gender human # HMMCPL. […] At five time points, 75 µL of reaction mixtures were transferred on ice to a 96-shallow well stop plate containing 225 µL acetonitrile with 0.1 µM propafenone. […] Standard curves for test compounds were generated using 5 concentrations (in duplicate) that were processed as above but with no incubation time. Stop plates were centrifuged at 2000xg for 10 min in a Sorvall ST 16 centrifuge, and 170 µL of the supernatants transferred to a Waters® Aquity UPLC (Ultra Performance Liquid Chromatography) 700 µL 96-well sample plate with cap mat. A Waters® Aquity UPLC BEH C18 1.7 µM, 2.1 × 50 mm column, at 40 °C, was used to fractionate 5 µL samples, using a 3 min linear 5 to 95% acetonitrile gradient in 0.1% formic acid with a 0.75 mL/min flow rate. In tandem with UPLC, compound concentrations were analyzed using a Waters® TQ MS mass spectrometer in electrospray-positive mode (source temperature 150 °C; desolvation temperature 450 °C; desolvation flow rate of 900 L/hr). Cone voltages, collision energies, and quantitation were optimized and determined using Waters® QuanOptimize software, with propafenone as an internal standard. MC180379:CV 34; CE 34; mrm 359.15 > 114.91; MC180390 CV 34; CE 28; mrm 359.15 > 114.92. GraphPad® Prism v 5.04 was used for nonlinear fitting of time course data to generate t1/2 and CLint (intrinsic clearance) values.
(In general: Liver microsomes are a subcellular fraction often used to study metabolism.)

Another series is described as follows: Kinetic solubility. Format: physicochemical. To be noted: Dulbecco's PBS, aqueous buffer, kinetic from dmso stock; PBS (pH 7.4), Free Base. The protocol:
The kinetic solubility of test compounds was determined by adapting Millipore® application note protocol AN1730EN00. Liquid handling was performed using PerkinElmer® Verispan and MDT workstations. In triplicate, 4 µL of 10 mM test compounds in DMSO were added to 196 µL of buffer (Dulbecco’s’ PBS or water). The 200 µM compound solutions, in 2% DMSO, were incubated with gentle shaking for 90 min at RT before vacuum filtration in 96-well polypropylene collection plates, using a Millipore® filtration manifold. 160 µL of filtrate was transferred to a 96-well UV Star analysis plate (Greiner Bio-One® plate # 655,801) containing 40 µL acetonitrile. Standard curves were generated by adding 4 µL of 50 × of five concentrations of test compounds, in DMSO, to 40 µL acetonitrile in UV Star plates, followed by 156 µL buffer. Absorbances at […] were measured using a Molecular Devices® Spectramax Plus microplate reader with Softmax Pro v. 5.4.5 software. Absorbance readings were summed to generate the signal. Test sample concentrations were interpolated from linear standard curves using GraphPad® Prism v 5.04.

Another series concerns MV4-11-luc cells. Put plainly: MV4-11-luc AML model in NSG mice. Particulars: MV4-11-luc in NSG mice, 20 mg/kg i.p. q.o.d.; for survival: 20 mg/kg.
Setting [4] is: SW48 model, 20 mg/kg i.p. q.o.d.
Setting [5] is: HT29 model, 20 mg/kg i.p. q.o.d.

By half-life is commonly meant how long it takes for the measured level to halve. As a reminder, the share remaining is what is left of the initial amount, in per cent. As a reminder, the solubility is the dissolved amount per volume that the medium holds.

Each structure is given as a SMILES string. In brackets after ≈: the same amount, converted by molar mass. Entries after “also recorded” stand apart in the source; their conditions may differ.

Experimental for MV4-11-luc cells: E NSG mice were inoculated (i.p.) with 5 × 10^5 MV4-11-luc cells. Four days later, when substantial tumor burden was evident by bioluminescence imaging, MC180379, MC180380, or vehicle were administered (i.p.) q.o.d at 20 mg/kg. Luciferase expression was quantified and calculated. F Mouse survival in days. […] Significances were calculated using log-rank (Mantel-Cox) or Student’s t tests.
0.5 mg/kg DAC was administered (i.p.) daily. […] B Mouse survival in days. 20 mg/kg MC180295 was administered (i.p.) q.o.d. 0.5 mg/kg DAC was administered (i.p.) daily. C NSG mice were inoculated (i.p.) with 5 × 10^5 MV4-11-luc cells. Four days later, when substantial tumor burden was evident by bioluminescence imaging, MC180295 (20 mg/kg) or vehicle were administered (i.p.) every other day. 0.5 mg/kg DAC was administered (i.p.) daily. Luciferase expression was quantified and calculated. […] 0.5 mg/kg DAC was administered (i.p.) daily. Mouse survival shown in days. Significances were calculated using log-rank (Mantel-Cox) or Student's t tests. Data are shown as means ± SEMs. ***p < 0.001
Both female and male NOD.Cg-Prkdcscid Il2rgtm1Wjl/SzJ (NSG) mice were used for the experiments. Age- and gender-matched mice were randomly assigned to each group. 8–10-week-old NSG mice were tail vein-injected with 5 × 10^5 MV4-11-luc cells. […] Natural death or accumulation of ascites fluid were used as endpoints.

Consider `Nc1nc(N[C@@H]2C[C@H]3CC[C@@H]2C3)sc1C(=O)c1ccccc1[N+](=O)[O-]` [MC180379], for which, in series [1] (setting [4]), the “tolerability; neutrophil, lymphocyte, monocyte counts” value is “well-tolerated”. Moreover, in series [2], the half-life is 4.1 min. In addition, in series [3], the half-life at 1 µM came to 12.2 min and the fraction remaining at 1 h, 1 µM turned out to be 86%. The compound further returned a solubility at 90 min in the series “Kinetic solubility” of 53.5 µM (≈ 19.2 µg/mL).
In the case of `Nc1nc(N[C@H]2C[C@@H]3CC[C@H]2C3)sc1C(=O)c1ccccc1[N+](=O)[O-]` (relative stereo) [MC180295], the body weights result was “neither MC180295 nor MC180295 + DAC treatment affected NSG mouse body weights, after CD8 depletion” in series [1] (CT26.CL25 immunocompetent mice, after CD8 depletion, Fig. S5B); “neither MC180295 nor MC180295 + DAC treatment affected NSG mouse body weights” in series [1] (CT26.CL25 immunocompetent mouse model, Fig. S5A); “did not affect NSG mouse body weights” in series [1] (SW48 model, NSG mice, Fig. S4C). Further, in the series on MV4-11-luc cells, the survival entry is “significantly extended survival”.
On to `Nc1nc(N[C@H]2C[C@@H]3CC[C@H]2C3)sc1C(=O)c1ccccc1[N+](=O)[O-]` [MC180380], for which, in series [1] (setting [5]), the “absolute lymphocyte and monocyte counts” value is “higher absolute lymphocyte and monocyte counts than MC180379-treated mice”; the platelet counts result is given as “higher platelet counts than those treated with MC180379”. Also, in series [1] (setting [4]), the platelet counts result is recorded as “slightly higher platelet counts than MC180379” and the “tolerability; neutrophil, lymphocyte, monocyte counts” value is given as “well-tolerated”. In series [1] (SW48 model, NSG mice, Fig. S4E), the body weights result is “did not affect NSG mouse body weights”. The bone marrow suppression result in series [1] (in vivo, from lymphocyte, monocyte and platelet counts) is recorded as “less bone marrow-suppressive (and thus less toxic) than MC180379”. The compound further showed a half-life in series [2] of 11.7 min. In series [3], the half-life at 1 µM was found to be 21.1 min and the share remaining at 1 h, 1 µM was found to be 88%. In “Kinetic solubility”, this compound displayed a solubility at 90 min of 52.6 µM (≈ 18.9 µg/mL). Moreover, in the series on MV4-11-luc cells, the “tumor burden, as measured by luciferase intensities” value was “lower” and the survival entry is given as “significantly extended survival; also recorded: better survival”.

(Values after publication PMC10765884, “MC180295 is a highly potent and selective CDK9 inhibitor with preclinical in vitro and in vivo efficacy in cancer” (Clinical Epigenetics, 2024).)
